In experiment [1] the target is T1, human recombinant HDAC1 (Homo sapiens, UniProt Q13547).
T1 construct: purchased Enzo Life Science BML-SE456
The experiment in a line: HDAC1 enzyme activity inhibition assay (HDAC Fluorimetric Drug Discovery Kit). The format is biochemical. The settings on record: 30° C. 60 minutes. An outline of the steps:
(§1)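 Fluorimetric deacetylase assay: 5-fold serial compound dilutions, 0.3 μg recombinant human enzyme (HDAC1 or HDAC6, same protocol), 10 μM Fluor de Lys-SIRT1 substrate, 60 min at 30 °C. Signal developed 30 min, measured at 360/460 nm; IC50 values derived.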

Experiment [2] addresses T2, human recombinant HDAC6 (Homo sapiens, UniProt Q9UBN7).
T2 construct: purchased Calbiochem 382180
T2 sequence (Q9UBN7 1-1215): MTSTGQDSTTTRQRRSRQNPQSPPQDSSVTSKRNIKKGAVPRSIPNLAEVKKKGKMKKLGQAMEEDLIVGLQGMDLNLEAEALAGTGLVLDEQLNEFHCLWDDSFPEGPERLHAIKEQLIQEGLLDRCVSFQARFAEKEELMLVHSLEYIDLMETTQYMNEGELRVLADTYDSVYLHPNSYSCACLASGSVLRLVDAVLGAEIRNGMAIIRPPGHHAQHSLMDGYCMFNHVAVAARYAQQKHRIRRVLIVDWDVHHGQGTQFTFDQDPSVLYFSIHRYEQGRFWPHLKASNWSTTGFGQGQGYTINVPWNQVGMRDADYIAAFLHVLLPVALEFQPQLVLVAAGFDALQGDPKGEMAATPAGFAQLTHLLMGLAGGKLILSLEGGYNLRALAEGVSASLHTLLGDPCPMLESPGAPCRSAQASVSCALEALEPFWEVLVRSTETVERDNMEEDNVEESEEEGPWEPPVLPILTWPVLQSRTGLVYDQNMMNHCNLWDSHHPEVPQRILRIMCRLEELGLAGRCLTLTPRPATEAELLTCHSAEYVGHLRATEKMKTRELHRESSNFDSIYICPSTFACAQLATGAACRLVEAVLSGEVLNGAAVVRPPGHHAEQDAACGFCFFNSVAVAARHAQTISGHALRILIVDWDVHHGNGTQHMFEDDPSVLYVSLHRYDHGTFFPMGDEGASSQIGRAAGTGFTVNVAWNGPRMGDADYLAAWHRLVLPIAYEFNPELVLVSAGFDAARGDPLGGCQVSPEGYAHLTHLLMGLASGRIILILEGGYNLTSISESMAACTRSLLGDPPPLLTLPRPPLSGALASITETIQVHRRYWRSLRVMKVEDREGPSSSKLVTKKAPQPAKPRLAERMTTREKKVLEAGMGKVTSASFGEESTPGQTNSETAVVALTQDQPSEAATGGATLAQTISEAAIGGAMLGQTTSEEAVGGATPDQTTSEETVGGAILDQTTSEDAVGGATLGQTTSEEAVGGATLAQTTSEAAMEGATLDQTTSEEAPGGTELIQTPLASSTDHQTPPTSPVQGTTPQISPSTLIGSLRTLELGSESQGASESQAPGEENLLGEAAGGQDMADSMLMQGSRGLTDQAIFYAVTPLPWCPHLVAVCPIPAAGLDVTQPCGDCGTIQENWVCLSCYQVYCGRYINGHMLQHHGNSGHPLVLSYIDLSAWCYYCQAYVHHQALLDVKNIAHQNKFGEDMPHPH
Put plainly: HDAC6 enzyme activity inhibition assay (HDAC Fluorimetric Drug Discovery Kit). Format: biochemical. The settings on record: for HDAC6 selectivity (fold): HDAC6 over HDAC1; for IC50: human recombinant HDAC6, same protocol as HDAC1, read-out: HDAC6. A digest of the protocol:
as §1

The mark [3] stands for this setting: human recombinant HDAC1, Fluor de Lys substrate.

T1 sequence (Q13547 whole entry): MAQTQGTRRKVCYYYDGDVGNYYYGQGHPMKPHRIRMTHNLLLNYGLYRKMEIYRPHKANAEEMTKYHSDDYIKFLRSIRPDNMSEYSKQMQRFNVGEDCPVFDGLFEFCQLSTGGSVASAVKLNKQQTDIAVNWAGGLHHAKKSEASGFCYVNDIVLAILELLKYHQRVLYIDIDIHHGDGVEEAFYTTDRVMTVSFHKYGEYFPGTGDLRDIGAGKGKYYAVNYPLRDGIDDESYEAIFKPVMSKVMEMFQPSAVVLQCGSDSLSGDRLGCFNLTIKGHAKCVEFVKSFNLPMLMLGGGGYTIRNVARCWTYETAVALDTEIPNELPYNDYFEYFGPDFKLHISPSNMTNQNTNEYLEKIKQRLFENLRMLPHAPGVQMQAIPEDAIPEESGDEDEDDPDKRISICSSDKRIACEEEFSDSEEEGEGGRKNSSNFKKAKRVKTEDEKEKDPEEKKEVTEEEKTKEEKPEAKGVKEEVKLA

As for `O=C(N1CCN(C2COC2)CC1)N(Cc1ccc(-c2nnc(C(F)F)o2)cn1)c1ccccc1` [Compound 21905, N-((5-(5-(Difluoromethyl)-1,3,4-oxadiazol-2-yl)pyridin-2-yl)methyl)-4-(oxetan-3-yl)-N-phenylpiperazine-1-carboxamide], in experiment [1] (human recombinant HDAC1, Fluor de Lys substrate 10 μM), the IC50 amounted to 56.1 µM. Further, in experiment [2], the “HDAC6 selectivity (fold)” value was determined as 1454 fold and the IC50 came out at 0.039 µM.

Consider `O=C(N1CCOCC1)N(Cc1ccc(-c2nnc(C(F)(F)F)o2)cc1F)c1ccc(F)c(Cl)c1` [Compound 21930, N-(3-chloro-4-fluorophenyl)-N-(2-fluoro-4-(5-(trifluoromethyl)-1,3,4-oxadiazol-2-yl)benzyl)morpholine-4-carboxamide], for which, in experiment [1] (setting [3]), the IC50 was found to be 14.6 µM. For the same compound, in experiment [2], the “HDAC6 selectivity (fold)” value amounted to 35 fold and the IC50 turned out to be 0.419 µM.

For the compound `O=C(N1CCN(C2COC2)CC1)N(Cc1ccc(-c2nnc(C(F)F)o2)cn1)c1ccc(F)cc1` [Compound 21941, N-((5-(5-(Difluoromethyl)-1,3,4-oxadiazol-2-yl)pyridin-2-yl)methyl)-N-(4-fluorophenyl)-4-(oxetan-3-yl)piperazine-1-carboxamide], the IC50 in experiment [1] (setting [3]) turned out to be 46 µM. Also, in experiment [2], the “HDAC6 selectivity (fold)” value amounted to 446 fold and the IC50 worked out at 0.103 µM.

Take `O=C(N1CCN(C2COC2)CC1)N(Cc1ccc(-c2nnc(C(F)F)o2)cc1F)c1cccc(Cl)c1` [Compound 21943, N-(3-Chlorophenyl)-N-(4-(5-(difluoromethyl)-1,3,4-oxadiazol-2-yl)-2-fluorobenzyl)-4-(oxetan-3-yl)piperazine-1-carboxamide]: in experiment [1] (setting [3]), the IC50 stood at 29.6 µM. Also, in experiment [2], the “HDAC6 selectivity (fold)” value is given as 611 fold and the IC50 was 0.048 µM.

Take `COc1cccc(N(Cc2ccc(-c3nnc(C(F)F)o3)cc2)C(=O)N2CCN(C3COC3)CC2)c1` [Compound 21948, N-(4-(5-(Difluoromethyl)-1,3,4-oxadiazol-2-yl)benzyl)-N-(3-methoxyphenyl)-4-(oxetan-3-yl)piperazine-1-carboxamide]: the IC50 in experiment [1] (setting [3]) was found to be 46.3 µM. Moreover, in experiment [2], the “HDAC6 selectivity (fold)” value was 188 fold and the IC50 came to 0.246 µM.

For `COc1cccc(N(Cc2ccc(-c3nnc(C(F)F)o3)cc2F)C(=O)N2CCN(C3COC3)CC2)c1` [Compound 21949, N-(4-(5-(Difluoromethyl)-1,3,4-oxadiazol-2-yl)-2-fluorobenzyl)-N-(3-methoxyphenyl)-4-(oxetan-3-yl)piperazine-1-carboxamide], the IC50 in experiment [1] (setting [3]) came out at 48.3 µM. Moreover, in experiment [2], the “HDAC6 selectivity (fold)” value is 383 fold and the IC50 was 0.126 µM.

With `O=C(N1CCN(C2COC2)CC1)N(Cc1ccc(-c2nnc(C(F)F)o2)cc1)c1ccccc1` [Compound 21954, N-(4-(5-(Difluoromethyl)-1,3,4-oxadiazol-2-yl)benzyl)-4-(oxetan-3-yl)-N-phenylpiperazine-1-carboxamide], the IC50 in experiment [1] (setting [3]) stood at 35.7 µM. Moreover, in experiment [2], the “HDAC6 selectivity (fold)” value was 245 fold and the IC50 came out at 0.145 µM.

For `O=C(NCCN1CCS(=O)(=O)CC1)N(Cc1ccc(-c2nnc(C(F)F)o2)cc1F)c1ccccc1` [Compound 21985, 1-(4-(5-(Difluoromethyl)-1,3,4-oxadiazol-2-yl)-2-fluorobenzyl)-3-(2-(1,1-dioxidothiomorpholino)ethyl)-1-phenylurea], the IC50 in experiment [1] (setting [3]) is 21.4 µM. Further, in experiment [2], the “HDAC6 selectivity (fold)” value came to 480 fold and the IC50 came out at 0.045 µM.

Values taken from patent US10717716B2, “1,3,4-oxadiazole derivative compounds as histone deacetylase 6 inhibitor, and the pharmaceutical composition comprising the same” (Chong Kun Dang Pharmaceutical Corp., priority 2015, dated 2020).
